Source: patent US11802107B2, “Compounds and methods of use” (Signum Biosciences, Inc., priority 2017, dated 2023)

Key:
[1] = tested on: LPS-induced cytokines; assay: LPS-induced cytokines on PBMCs; type: cell-based, human; settings: LPS instead of anti-CD3/CD28 beads
Experimental: (§1) Cryopreserved human Peripheral Blood Mononuclear cells (PBMCs) from healthy adult donors were obtained from Zen Bio, Inc (Cat No. SER-PBMC-F). Cells were cultured in 96-well plates with lymphocyte media (Cat No. LYMPH-1) and were pre-treated with test materials (≤100 μM) for 2 hours and later co-treated with test materials and anti-CD3/CD28 beads (Thermo-Fisher; Cat No. 11131D) at 1:0.4 PBMC:bead ratio for 24 hours at 37° C. and 5% CO2. After incubation, cell media supernatants were harvested and used to measure cytokine levels (IL-4, IL-5, IL-10) using ELISA kits (BD Biosciences® #555194, #555157; R&D Systems® #DY317). Results were represented as percent of inhibition relative to untreated and anti-CD3/CD28 beads-only treated cells. IC50 values were determined by non-linear regression analysis using the four-parameter logistic equation.
By a similar method, but instead of anti-CD3/CD28 beads (Thermo-Fisher; Cat No. 11131D), compounds A, C, T and E were treated with LPS (Sigma Aldrich, Cat. No. LF4321) to measure inhibition of LPS-induced cytokines, and compounds C and T were treated with PHA-L (Sigma Aldrich, Cat No. 11249738001) to measure inhibition of PHA-induced cytokines.

[2] = tested on: IL-6; assay: Nickel (Ni2+)-induced IL-6 on HDMECs; type: cell-based; settings: Homo sapiens; HDMEC, 1 mM NiSO4, 6 hours, ELISA; read-out: Nickel-HDMECs IL-6 Protein IC50
Experimental: Human Dermal Microvascular Endothelial cells (HDMECs) from human skin tissues were obtained from Sciencell, Inc. (Cat No. 2000). Cells were cultured in 96-well plates for 24 hours with ECM media (Cat No. 1001) supplemented with endothelial cell growth supplement (Cat No. 50015) and 5% v/v FBS. On Day 2, media was removed and replaced with supplement-depleted medium for 24 hours. On Day 3, media was removed and cells were pre-treated with test materials (≤10 μM) for 2 hours and later co-treated with test materials and 1 mM NiSO4 (Sigma-Aldrich, Cat No. 227676) for 6 hours at 37° C. and 5% CO2. After incubation, cell media supernatants were harvested and used to measure IL-6 levels using ELISA kit (BD Biosciences® #555220). Results were represented as percent of inhibition relative to untreated and NiSO4-only treated cells. IC50 values were determined by non-linear regression analysis using the four-parameter logistic equation.

[3] = tested on: CXCL8 (IL-8); assay: P. acnes-induced IL-8 gene on human PBMCs (qPCR); type: cell-based; settings: PBMC, PBMCs + live P. acnes 1:1, test material 30 PM, 24 hours
Experimental: (§2) Cryopreserved human Peripheral Blood Mononuclear cells (PBMCs) from healthy adult donors were obtained from Zen Bio, Inc (Cat No. SER-PBMC-F). Cells were cultured in 12-well plates with lymphocyte media (Cat No. LYMPH-1) and incubated with test materials ([…]) and live P. acnes (ATCC® 6919TM) at 1:1 PBMC: P. acnes bacteria ratio for 24 hours at 37° C. and 5% CO2. After incubation, cell media supernatants were harvested and used to measure pro-inflammatory cytokine levels (IL-8, TNF-α, IL-1b, IL-17) using ELISA kits (BD Biosciences® #557966, #555212, #555244; R&D Systems® #DY317). Total RNA was extracted from cells using the RNAqueous® kit (Ambion®; Cat No. 1912) and cDNA was obtained using the High Capacity RNA-to-cDNA kit (Applied Biosystems®; Cat No. 4387406). Quantitative PCR (qPCR) was performed using the TaqMan® Fast Advanced Master Mix (Applied Biosystems®; Cat No. 4444556) and specific TaqMan®-probes human gene primers CXCL8 (IL-8), IL1B (IL-1b), TNF (TNF-α), IL17A (IL-17A) and GAPDH to calculate the relative gene fold expression change per treatment. Gene expression analysis was performed using the comparative Ct method (also known as the 2-[delta][delta]Ct) approach by comparing the Ct values of P. acnes-only treated cells with the untreated samples and normalized to GAPDH gene expression as endogenous housekeeping gene.

[4] = tested on: IL-13; assay: Concanavalin-A-induced IL-13 on PBMCs; type: cell-based; settings: Homo sapiens, PBMC, ConA, 24 hours, ELISA
[5] = tested on: IFNγ; assay: PHA-induced IFNγ on PBMCs; type: cell-based; settings: Homo sapiens, PBMC, PHA-L 20 μg/mL, 24 hours, ELISA
Experimental: Cryopreserved human Peripheral Blood Mononuclear cells (PBMCs) from healthy adult donors were obtained from Zen Bio, Inc (Cat No. SER-PBMC-F). Cells were cultured in 96-well plates with lymphocyte media (Cat No. LYMPH-1) and were pre-treated with test materials (≤100 μM) for 2 hours and later co-treated with test materials and PHA-L (Sigma Aldrich, Cat No. 11249738001) at 20 μg/mL and incubated for 24 hours at 37° C. and 5% CO2. After incubation, cell media supernatants were harvested and used to measure cytokine levels (IL-2, IFNγ) using ELISA kits (R&D Systems® #DY202, #DY285). Results were represented as percent of inhibition relative to untreated and PHA-only treated cells. IC50 values were determined by non-linear regression analysis using the four-parameter logistic equation.

[6] = tested on: IL-8; assay: P. acnes-induced IL-8 protein on human PBMCs (ELISA); type: cell-based; settings: PBMCs + live P. acnes 1:1, test material 30 PM, 24 hours
Experimental: as §2

[7] = tested on: IL1B (IL-1b); assay: P. acnes-induced IL-1b gene on human PBMCs (qPCR); type: cell-based; settings: PBMC, PBMCs + live P. acnes 1:1, test material 30 PM, 24 hours
Experimental: as §2

[8] = tested on: IL-31; assay: Anti-CD3/CD28+IL-4-induced IL-31 on PBMCs; type: cell-based; settings: Homo sapiens, PBMC, anti-CD3/CD28 beads + 50 ng/mL IL-4, 48 hours, ELISA, read-out: TCR/IL-4-PBMCs IL-31 IC50
Experimental: as §1, with “and 50 ng/mL recombinant human IL-4 (R&D Systems® #204-IL)” for “at 1:0.4 PBMC:bead ratio”, “48” for “24”, “(IL-22, IL-31)” for “(IL-4, IL-5, IL-10)”, “(R&D” for “(BD Biosciences® #555194, #555157; R&D”, “#DY782, #DY2824).” for “#DY317).”, “anti-CD3/CD28+IL-4 only” for “anti-CD3/CD28 beads-only”

Row | SMILES | IC50 [2] | IC50 [4] | IC50 [5] | IC50 [8] | inhibition of LPS-induced cytokines [1] | inhibition at 30 pM [3] | IL-8 Protein % inhibition [6] | inhibition at 30 pM [7]
1 | C/C(=C\CSC[C@H](NC(=O)N(C)CC(=O)O)C(=O)O)CCCC(C)CCCC(C)CCCC(C)C (stereo partly drawn) [Compound C, (2R)-2-{[(carboxymethyl)(methyl)carbamoyl]amino}-3-{[(2E)-3,7,11,15-tetramethylhexadec-2-en-1-yl]sulfanyl}propanoic acid] | 20 nM | 8200 nM | > 10000 nM | – | did not show significant inhibition | 0% | 8% | 0%
2 | N#Cc1ccc(Oc2ccc3c(c2)COB3O)cc1 [AN2728, reference compound] | 100000 nM | 3800 nM | 300 nM | 0.008 nM | – | – | – | –
3 | C/C(=C\CSCC(NC(=O)N(CC(=O)O)CC(=O)O)C(=O)O)CCCC(C)CCCC(C)CCCC(C)C (centres unmarked) [Compound G] | – | 20 nM | > 10000 nM | – | – | 0% | 74% | 10%

Second part, led by results:

Row | IC50 [2] | IC50 [4] | IC50 [5] | IC50 [8] | SMILES | inhibition of LPS-induced cytokines [1] | inhibition at 30 pM [3] | IL-8 Protein % inhibition [6] | inhibition at 30 pM [7]
4 | 30 nM | – | – | – | C/C(=C\CSCC(NC(=O)NCC(=O)O)C(=O)O)CCCC(C)CCCC(C)CCCC(C)C (centres unmarked) [A] | did not show significant inhibition | – | – | –
5 | – | 1500 nM | 1400 nM | 1 nM | C/C(=C\CSC[C@H](NC(=O)N1CCC[C@H]1C(=O)O)C(=O)O)CCCC(C)CCCC(C)CCCC(C)C (some centres unmarked) [Compound E] | did not show significant inhibition | 8% | 67% | 20%
6 | 10 nM | 100 nM | > 10000 nM | 1 nM | C/C(=C\CSC[C@H](NC(=O)COCC(=O)O)C(=O)O)CCCC(C)CCCC(C)CCCC(C)C (some centres unmarked) [Compound T] | did not show significant inhibition | 0% | – | 27%
